Columns and labels:
[1] = target: GDP-bound NRAS wild-type protein (Homo sapiens, UniProt P01111); test: Binding to NRAS by surface plasmon resonance (SPR), Single Cycle Kinetics; details: KD ratio NRAS/KRAS, SPR
[2] = target: GDP-bound HRAS wild-type protein (Homo sapiens, UniProt P01112); test: Binding to HRAS by surface plasmon resonance (SPR), Single Cycle Kinetics; details: KD ratio HRAS/KRAS, SPR
Chain of GDP-bound HRAS wild-type protein (P01112 whole entry): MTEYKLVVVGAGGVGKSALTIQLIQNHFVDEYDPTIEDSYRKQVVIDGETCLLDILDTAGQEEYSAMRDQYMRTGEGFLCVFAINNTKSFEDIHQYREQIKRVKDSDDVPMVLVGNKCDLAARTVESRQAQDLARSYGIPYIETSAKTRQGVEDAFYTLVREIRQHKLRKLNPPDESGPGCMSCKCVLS

Chain of GDP-bound NRAS wild-type protein (P01111 whole entry): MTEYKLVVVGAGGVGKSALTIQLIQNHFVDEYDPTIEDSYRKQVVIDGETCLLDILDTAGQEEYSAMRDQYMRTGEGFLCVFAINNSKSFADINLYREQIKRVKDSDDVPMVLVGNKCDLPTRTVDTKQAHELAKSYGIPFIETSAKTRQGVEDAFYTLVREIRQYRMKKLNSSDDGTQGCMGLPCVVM

SMILES | NRAS/KRAS (ratio of KD value with respect to GDP-bound NRAS wild-type protein to KD value with respect to KRAS) [1] | HRAS/KRAS (ratio of KD value with respect to GDP-bound HRAS wild-type protein to KD value with respect to KRAS) [2]
CCO[C@@H]1C[C@H]2C(=O)NC3(CCC3)C(=O)N(C)[C@@H](C3CCCC3)C(=O)N(C)[C@H](C(=O)N3CCOCC3)CC(=O)N(C)[C@@H](CC(C)C)C(=O)N[C@@H]([C@@H](C)CC)C(=O)N(C)CC(=O)N(C)[C@H]3CCCCN(C3=O)[C@@H](Cc3ccc(C(F)(F)F)cc3)C(=O)N(C)CC(=O)N[C@@H](CCc3cc(F)c(C(F)(F)F)c(F)c3)C(=O)N2C1 [PP0578] | B (a compound having 3 or more and less than 10 is denoted as B) | B (a compound having 3 or more and less than 10 is denoted as B)
CCO[C@@H]1C[C@H]2C(=O)NC3(CCCC3)C(=O)N(C)[C@@H](C3CCCC3)C(=O)N(C)[C@H](C(=O)N(C)C)CC(=O)N(C)[C@@H](CC(C)C)C(=O)N[C@@H]([C@@H](C)CC)C(=O)N(C)CC(=O)N(C)[C@H]3CCCCN(C3=O)[C@@H](Cc3ccc(C(F)(F)F)cc3)C(=O)N(C)CC(=O)N[C@@H](CCc3cc(F)c(C(F)(F)F)c(F)c3)C(=O)N2C1 [PP0579] | C (A compound having a KD ratio of 0.1 or more and less than 3 is denoted as C) | B (a compound having 3 or more and less than 10 is denoted as B)
CCO[C@@H]1C[C@H]2C(=O)NC3(CCC3)C(=O)N(C)[C@@H](C3CCCC3)C(=O)N(C)[C@H](C(=O)N(C)C)CC(=O)N(C)[C@@H](CC(C)C)C(=O)N[C@@H]([C@@H](C)CC)C(=O)N(C)CC(=O)N(C)[C@H]3CCCCN(C3=O)[C@@H](Cc3ccc(C(F)(F)F)cc3)C(=O)N(C)CC(=O)N[C@@H](CCc3cc(F)c(C(F)(F)F)c(F)c3)C(=O)N2C1 [PP0580] | C (A compound having a KD ratio of 0.1 or more and less than 3 is denoted as C) | C (A compound having a KD ratio of 0.1 or more and less than 3 is denoted as C)
CC[C@H](C)[C@@H]1NC(=O)[C@H](C)N(C)C(=O)C[C@@H](C(=O)N(C)C)N(C)C(=O)[C@H](C2CCCC2)N(C)C(=O)C2(CCC2)NC(=O)[C@@H]2CCCN2C(=O)[C@H](CCc2cc(F)c(C(F)(F)F)c(F)c2)NC(=O)CN(C)C(=O)[C@H](Cc2ccc(C(F)(F)F)cc2)N2CCCC[C@@H](C2=O)N(C)C(=O)CN(C)C1=O [PP0581] | C (A compound having a KD ratio of 0.1 or more and less than 3 is denoted as C) | B (a compound having 3 or more and less than 10 is denoted as B)
CC[C@H](C)[C@@H]1NC(=O)[C@H](C)N(C)C(=O)C[C@@H](C(=O)N2CCOCC2)N(C)C(=O)[C@H](C2CCCC2)N(C)C(=O)C2(CCC2)NC(=O)[C@@H]2CC(F)(F)CN2C(=O)[C@H](CCc2cc(F)c(C(F)(F)F)c(F)c2)NC(=O)CN(C)C(=O)[C@H](Cc2ccc(C(F)(F)F)cc2)N2CCCC[C@@H](C2=O)N(C)C(=O)CN(C)C1=O [PP0582] | C (A compound having a KD ratio of 0.1 or more and less than 3 is denoted as C) | B (a compound having 3 or more and less than 10 is denoted as B)
CC[C@H](C)[C@@H]1NC(=O)[C@H](C)N(C)C(=O)C[C@@H](C(=O)N(C)C)N(C)C(=O)[C@H](C2CCCC2)N(C)C(=O)C2(CCCC2)NC(=O)[C@@H]2CC(F)(F)CN2C(=O)[C@H](CCc2cc(F)c(C(F)(F)F)c(F)c2)NC(=O)CN(C)C(=O)[C@H](Cc2ccc(C(F)(F)F)cc2)N2CCCC[C@@H](C2=O)N(C)C(=O)CN(C)C1=O [PP0583] | C (A compound having a KD ratio of 0.1 or more and less than 3 is denoted as C) | C (A compound having a KD ratio of 0.1 or more and less than 3 is denoted as C)
CC[C@H](C)[C@@H]1NC(=O)[C@H](C)N(C)C(=O)C[C@@H](C(=O)N(C)C)N(C)C(=O)[C@H](C2CCCC2)N(C)C(=O)C2(CCC2)NC(=O)[C@@H]2CC(F)(F)CN2C(=O)[C@H](CCc2cc(F)c(C(F)(F)F)c(F)c2)NC(=O)CN(C)C(=O)[C@H](Cc2ccc(C(F)(F)F)cc2)N2CCCC[C@@H](C2=O)N(C)C(=O)CN(C)C1=O [PP0584] | C (A compound having a KD ratio of 0.1 or more and less than 3 is denoted as C) | C (A compound having a KD ratio of 0.1 or more and less than 3 is denoted as C)
CCO[C@@H]1C[C@H]2C(=O)NC3(CCC3)C(=O)N(C)[C@@H](C3CCCC3)C(=O)N(C)[C@H](C(=O)N3CCOCC3)CC(=O)N(C)[C@@H](C)C(=O)N[C@@H]([C@@H](C)CC)C(=O)N(C)CC(=O)N(C)[C@H]3CCCCN(C3=O)[C@@H](Cc3ccc(C(F)(F)F)cc3)C(=O)N(C)CC(=O)N[C@@H](CCc3cc(F)c(C(F)(F)F)c(F)c3)C(=O)N2C1 [PP0585] | B (a compound having 3 or more and less than 10 is denoted as B) | B (a compound having 3 or more and less than 10 is denoted as B)
CCO[C@@H]1C[C@H]2C(=O)NC3(CCCC3)C(=O)N(C)[C@@H](C3CCCC3)C(=O)N(C)[C@H](C(=O)N(C)C)CC(=O)N(C)[C@@H](C)C(=O)N[C@@H]([C@@H](C)CC)C(=O)N(C)CC(=O)N(C)[C@H]3CCCCN(C3=O)[C@@H](Cc3ccc(C(F)(F)F)cc3)C(=O)N(C)CC(=O)N[C@@H](CCc3cc(F)c(C(F)(F)F)c(F)c3)C(=O)N2C1 [PP0586] | C (A compound having a KD ratio of 0.1 or more and less than 3 is denoted as C) | B (a compound having 3 or more and less than 10 is denoted as B)
CCO[C@@H]1C[C@H]2C(=O)NC3(CCC3)C(=O)N(C)[C@@H](C3CCCC3)C(=O)N(C)[C@H](C(=O)N(C)C)CC(=O)N(C)[C@@H](C)C(=O)N[C@@H]([C@@H](C)CC)C(=O)N(C)CC(=O)N(C)[C@H]3CCCCN(C3=O)[C@@H](Cc3ccc(C(F)(F)F)cc3)C(=O)N(C)CC(=O)N[C@@H](CCc3cc(F)c(C(F)(F)F)c(F)c3)C(=O)N2C1 [PP0587] | C (A compound having a KD ratio of 0.1 or more and less than 3 is denoted as C) | C (A compound having a KD ratio of 0.1 or more and less than 3 is denoted as C)
CC[C@H](C)[C@@H]1NC(=O)[C@H](CC(C)C)N(CC)C(=O)C[C@@H](C(=O)N2CCOCC2)N(C)C(=O)[C@H](C2CCCC2)N(C)C(=O)C2(CCCC2)NC(=O)[C@@H]2CCCN2C(=O)[C@H](CCc2cc(F)c(C(F)(F)F)c(F)c2)NC(=O)CN(C)C(=O)[C@H](Cc2ccc(C(F)(F)F)cc2)N2CCCC[C@@H](C2=O)N(C)C(=O)CN(C)C1=O [PP0588] | B (a compound having 3 or more and less than 10 is denoted as B) | B (a compound having 3 or more and less than 10 is denoted as B)
CC[C@H](C)[C@@H]1NC(=O)[C@H](CC(C)C)N(C)C(=O)C[C@@H](C(=O)N2CCOCC2)N(C)C(=O)[C@H](C2CCCC2)N(C)C(=O)C2(CCCC2)NC(=O)[C@H](C)N(CC)C(=O)[C@H](CCc2cc(F)c(C(F)(F)F)c(F)c2)NC(=O)CN(C)C(=O)[C@H](Cc2ccc(C(F)(F)F)cc2)N2CCCC[C@@H](C2=O)N(C)C(=O)CN(C)C1=O [PP0589] | B (a compound having 3 or more and less than 10 is denoted as B) | B (a compound having 3 or more and less than 10 is denoted as B)
CC[C@H](C)[C@@H]1NC(=O)[C@H](CC(C)C)NC(=O)C[C@@H](C(=O)N2CCOCC2)N(C)C(=O)[C@H](C2CCCC2)N(C)C(=O)C2(CCCC2)NC(=O)[C@@H]2CCCN2C(=O)[C@H](CCc2cc(F)c(C(F)(F)F)c(F)c2)NC(=O)CN(C)C(=O)[C@H](Cc2ccc(C(F)(F)F)cc2)N2CCCC[C@@H](C2=O)N(C)C(=O)CN(C)C1=O [PP0590] | C (A compound having a KD ratio of 0.1 or more and less than 3 is denoted as C) | B (a compound having 3 or more and less than 10 is denoted as B)
CC[C@H](C)[C@@H]1NC(=O)[C@@H](CC(C)C)N(C)C(=O)C[C@@H](C(=O)N2CCOCC2)N(C)C(=O)[C@H](C2CCCC2)N(C)C(=O)C2(CCCC2)NC(=O)[C@@H]2CCCN2C(=O)[C@H](CCc2cc(F)c(C(F)(F)F)c(F)c2)NC(=O)CN(C)C(=O)[C@H](Cc2ccc(C(F)(F)F)cc2)N2CCCC[C@@H](C2=O)N(C)C(=O)CN(C)C1=O [PP0591] | B (a compound having 3 or more and less than 10 is denoted as B) | B (a compound having 3 or more and less than 10 is denoted as B)
CC[C@H](C)[C@@H]1NC(=O)[C@H](CC(F)(F)F)N(C)C(=O)C[C@@H](C(=O)N2CCOCC2)N(C)C(=O)[C@H](C2CCCC2)N(C)C(=O)C2(CCCC2)NC(=O)[C@@H]2CCCN2C(=O)[C@H](CCc2cc(F)c(C(F)(F)F)c(F)c2)NC(=O)CN(C)C(=O)[C@H](Cc2ccc(C(F)(F)F)cc2)N2CCCC[C@@H](C2=O)N(C)C(=O)CN(C)C1=O [PP0594] | C (A compound having a KD ratio of 0.1 or more and less than 3 is denoted as C) | B (a compound having 3 or more and less than 10 is denoted as B)

Reference: US20250230193A1, “CYCLIC COMPOUND HAVING SELECTIVE KRAS INHIBITORY EFFECT ON HRAS AND NRAS” (CHUGAI SEIYAKU KABUSHIKI KAISHA, priority 2022, published 2025)
